Data as given in patent publication US20080102082A1, “Formulation for Oral Administration Having a Health-Promoting Effect on the Cardiovascular System” (ROTTAPHARM S.p.A., priority 2004, published 2008).
Read-outs that look alike come from different tables or passages of the source.

Columns and labels:
[1] = target: T1, HMG-CoA reductase (HMG-CoA-r) (Homo sapiens, UniProt P04035); conditions: competitive enzymatic inhibition; cited from earlier work
T1 sequence (P04035 1-888): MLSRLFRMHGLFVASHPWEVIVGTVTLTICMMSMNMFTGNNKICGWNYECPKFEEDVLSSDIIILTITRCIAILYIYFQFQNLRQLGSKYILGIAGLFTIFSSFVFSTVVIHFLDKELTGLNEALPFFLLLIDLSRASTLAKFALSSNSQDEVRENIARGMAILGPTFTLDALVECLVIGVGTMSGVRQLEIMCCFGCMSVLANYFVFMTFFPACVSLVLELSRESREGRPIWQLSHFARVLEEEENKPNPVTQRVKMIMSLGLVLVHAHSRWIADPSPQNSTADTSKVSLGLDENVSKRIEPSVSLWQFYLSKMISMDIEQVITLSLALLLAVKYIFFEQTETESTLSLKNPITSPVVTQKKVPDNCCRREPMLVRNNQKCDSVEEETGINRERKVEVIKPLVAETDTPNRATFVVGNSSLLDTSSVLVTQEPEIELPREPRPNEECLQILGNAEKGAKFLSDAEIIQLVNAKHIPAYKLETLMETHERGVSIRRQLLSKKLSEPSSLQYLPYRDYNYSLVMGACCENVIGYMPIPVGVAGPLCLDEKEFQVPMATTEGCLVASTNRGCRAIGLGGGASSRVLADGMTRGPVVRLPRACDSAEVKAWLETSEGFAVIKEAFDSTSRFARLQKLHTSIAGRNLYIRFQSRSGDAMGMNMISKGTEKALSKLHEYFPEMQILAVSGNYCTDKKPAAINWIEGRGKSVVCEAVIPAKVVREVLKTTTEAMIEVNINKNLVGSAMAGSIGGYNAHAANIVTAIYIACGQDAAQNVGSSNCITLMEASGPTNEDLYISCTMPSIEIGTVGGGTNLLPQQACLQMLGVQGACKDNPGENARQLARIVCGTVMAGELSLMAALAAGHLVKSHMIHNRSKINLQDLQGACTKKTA

[2] = NOAEL, repeated daily doses in the animal; assay type: in vivo; conditions: extrapolated from the animal NOAEL
Protocol: In man the NOAEL is 6 mg.

[3] = in man; cited from earlier work
[4] = doses repeated daily in the animal; cited from earlier work

CC[C@H](C)C(=O)O[C@H]1C[C@@H](C)C=C2C=C[C@H](C)[C@H](CC[C@@H]3C[C@@H](O)CC(=O)O3)[C@H]21 [Monacolin K]
activity for the enzyme relative to the natural substrate HMG-CoA [1]: 2000 times

CC1=C(/C=C/C(C)=C/C=C/C(C)=C/C=C/C=C(C)/C=C/C=C(C)/C=C/C2=C(C)C(=O)[C@@H](O)CC2(C)C)C(C)(C)C[C@H](O)C1=O [AX, 3,3′-dihydroxy-β,β′-carotene-4,4′-dione]
NOAEL of the animal, corresponding amount in man [2]: more than 80 g | NOAEL (no observed adverse effect level) [3]: 6 mg | NOAEL (no observed adverse effect level) [4]: 1340 mg/kg
